Assays:
Assay type in all cases: in vivo, Swiss-Webster mice
[1] = test system: total white blood cell (WBC); assay: Total white blood cells by complete blood count on day 8, dosing day 1, 3, 5; conditions: Mus musculus, 192 h, mice, oral gavage, measured on day 8, read-out: Total WBC % Increase Over Control; for change in vivo at 100 mg/kg: 100 mg/kg on day 1, day 3 and day 5; for change in vivo at 200 mg/kg: 200 mg/kg on day 1, day 3 and day 5
Method: (§1) To examine the effect of compounds and methods of the present invention on increasing white blood cells, the following studies were performed. In one series of experiments, male Swiss-Webster mice were administered various compounds of the present invention via oral gavage using a ball-tipped gavage needle. […] Animals were dosed once daily for 3 or 4 days. Six hours after the final dosing, 200 μl blood samples were collected and total white blood cell, neutrophil, and lymphocyte levels were measured by complete blood count (CBC) using a CellDyn cell analyzer (Abbott Laboratories).
(§2) In another series of experiments, male Swiss-Webster mice were administered various compounds (see Table 7 and Table 8) of the present invention via oral gavage using a ball-tipped gavage needle. […] Total WBC, neutrophil, lymphocyte, and monocyte levels were measured in mice as described above on day 8 following administration of compound on day 1, day 3, and day 5.

neutrophils [2] = assay: Neutrophils by complete blood count on day 8, dosing day 1, 3, 5; conditions: Mus musculus, Neutrophil, 192 h, mice, oral gavage, measured on day 8, read-out: Neutrophils % Increase Over Control; for change in vivo at 100 mg/kg: 100 mg/kg on day 1, day 3 and day 5; for change in vivo at 200 mg/kg: 200 mg/kg on day 1, day 3 and day 5
Method: as §1, §2

lymphocytes = assay: Lymphocytes by complete blood count on day 8, dosing day 1, 3, 5; conditions: mice, oral gavage, measured on day 8
Method: as §1, §2

monocytes = assay: Monocytes by complete blood count on day 8, dosing day 1, 3, 5; conditions: mice, oral gavage, measured on day 8
[3] = test system: total white blood cell (WBC); assay: Total white blood cells by complete blood count on day 8, dosing day 1, 3, 5; conditions: mice, oral gavage, measured on day 8
neutrophils [4] = assay: Neutrophils by complete blood count on day 8, dosing day 1, 3, 5; conditions: mice, oral gavage, measured on day 8
[5] = Mus musculus, Lymphocyte, 192 h, 100 mg/kg on day 1, day 3 and day 5, read-out: Lymphocytes % Increase Over Control
[6] = 100 mg/kg on day 1, day 3 and day 5
[7] = Mus musculus, Monocyte, 192 h, 100 mg/kg on day 1, day 3 and day 5, read-out: Monocytes % Increase Over Control
[8] = Mus musculus, Lymphocyte, 192 h, 200 mg/kg on day 1, day 3 and day 5, read-out: Lymphocytes % Increase Over Control
[9] = 200 mg/kg on day 1, day 3 and day 5
[10] = Mus musculus, Monocyte, 192 h, 200 mg/kg on day 1, day 3 and day 5, read-out: Monocytes % Increase Over Control
[11] = 20 mg/kg on day 1, day 3 and day 5

Structure (SMILES)	change in vivo at 100 mg/kg [1] [%]	change in vivo at 100 mg/kg (neutrophils [2]) [%]	change in vivo at 100 mg/kg (lymphocytes; [5]) [%]	Lymphocytes (lymphocytes; [6])	change in vivo at 100 mg/kg (monocytes; [7]) [%]	Monocytes (monocytes; [6])	Total WBC [3, 6]	Neutrophils (neutrophils [4]; [6])	change in vivo at 200 mg/kg [1] [%]	change in vivo at 200 mg/kg (neutrophils [2]) [%]	change in vivo at 200 mg/kg (lymphocytes; [8]) [%]	Lymphocytes (lymphocytes; [9])	change in vivo at 200 mg/kg (monocytes; [10]) [%]	Monocytes (monocytes; [9])	Total WBC [3, 9]	Neutrophils (neutrophils [4]; [9])	further results
N#Cc1nc(C(=O)NCC(=O)O)c(O)c2ccn(Cc3ccc4ccccc4c3)c12 [Compound R, [(7-Cyano-4-hydroxy-1-naphthalen-2-ylmethyl-1H-pyrrolo[2,3-c]pyridine-5-carbonyl)-amino]-acetic acid]	290	71	330	21.4 10^3 cells/μl	205	0.3 10^3 cells/μl	23.0 10^3 cells/μl	1.3 10^3 cells/μl	–	–	–	–	–	–	–	–	–
Cc1nc(C(=O)NCC(=O)O)c(O)c2ccc(Cl)cc12 [Compound Y, [(7-Chloro-4-hydroxy-1-methyl-isoquinoline-3-carbonyl)-amino]-acetic acid]	–	–	–	–	–	–	–	–	34	200	17	7.6 10^3 cells/μl	700	0.2 10^3 cells/μl	9.8 10^3 cells/μl	1.9 10^3 cells/μl	–
COc1ccc(Oc2cccc3c(C#N)nc(C(=O)NCC(=O)O)c(O)c23)cc1 [Compound N, {[1-Cyano-4-hydroxy-5-(4-methoxy-phenoxy)-isoquinoline-3-carbonyl]-amino}-acetic acid]	–	–	–	–	–	–	–	–	125	60	138	10.7 10^3 cells/μl	157	0.2 10^3 cells/μl	12.0 10^3 cells/μl	0.9 10^3 cells/μl	–
Cc1nc(C(=O)NCC(=O)O)c(O)c2cccc(Oc3ccccc3)c12 [Compound AC, [(4-Hydroxy-1-methyl-8-phenoxy-isoquinoline-3-carbonyl)-amino]-acetic acid]	94	96	95	8.0 10^3 cells/μl	–	0.1 10^3 cells/μl	9.2 10^3 cells/μl	1.0 10^3 cells/μl	–	–	–	–	–	–	–	–	–
Cc1cccc(C)c1Oc1ccc2c(O)c(C(=O)NCC(=O)O)nc(C#N)c2c1 [Compound AI, {[1-Cyano-7-(2,6-dimethyl-phenoxy)-4-hydroxy-isoquinoline-3-carbonyl]-amino}-acetic acid]	266	45	303	17.4 10^3 cells/μl	0	0.1 10^3 cells/μl	18.3 10^3 cells/μl	0.7 10^3 cells/μl	–	–	–	–	–	–	–	–	–
CC(C)Oc1ccc2c(O)c(C(=O)NCC(=O)O)nc(C#N)c2c1 [Compound H, [(1-Cyano-4-hydroxy-7-isopropoxy-isoquinoline-3-carbonyl)-amino]-acetic acid]	120	135	120	7.7 10^3 cells/μl	–	0.1 10^3 cells/μl	9.4 10^3 cells/μl	1.6 10^3 cells/μl	783	6	963	37.0 10^3 cells/μl	–	0.1 10^3 cells/μl	37.8 10^3 cells/μl	0.7 10^3 cells/μl	–
O=C(O)CNC(=O)c1c(O)c2cccn2n(Cc2ccc(C(F)(F)F)cc2)c1=O [Compound BG, {[4-Hydroxy-2-oxo-1-(4-trifluoromethyl-benzyl)-1,2-dihydro-pyrrolo[1,2-b]pyridazine-3-carbonyl]-amino}-acetic acid]	–	–	–	–	–	–	–	–	252	22	296	24.4 10^3 cells/μl	60	0.2 10^3 cells/μl	26.2 10^3 cells/μl	1.0 10^3 cells/μl	–
O=C(O)CNC(=O)c1c(O)c2ccccc2sc1=O [Compound BF, [(4-Hydroxy-2-oxo-2H-thiochromene-3-carbonyl)-amino]-acetic acid]	–	–	–	–	–	–	–	–	–	–	–	–	–	–	–	–	change in vivo at 20 mg/kg [1, 11]: 17%; change in vivo at 20 mg/kg (neutrophils [2]; [11]): 65%; change in vivo at 20 mg/kg (lymphocytes; Mus musculus, Lymphocyte, 192 h, 20 mg/kg on day 1, day 3 and day 5, read-out: Lymphocytes % Increase Over Control): 12%; Lymphocytes (lymphocytes; [11]): 7.1 10^3 cells/μl; change in vivo at 20 mg/kg (monocytes; Mus musculus, Monocyte, 192 h, 20 mg/kg on day 1, day 3 and day 5, read-out: Monocytes % Increase Over Control): 64%; Monocytes (monocytes; [11]): 0.2 10^3 cells/μl; Total WBC [3, 11]: 8.4 10^3 cells/μl; Neutrophils (neutrophils [4]; [11]): 1.0 10^3 cells/μl
N#Cc1nc(C(=O)NCC(=O)O)c(O)c2c(Cl)cn(Cc3ccc(F)cc3)c12 [Compound P, {[3-Chloro-7-cyano-1-(4-fluoro-benzyl)-4-hydroxy-1H-pyrrolo[2,3-c]pyridine-5-carbonyl]-amino}-acetic acid]	54	18	60	9.1 10^3 cells/μl	33	0.1 10^3 cells/μl	10.2 10^3 cells/μl	0.8 10^3 cells/μl	–	–	–	–	–	–	–	–	–
N#Cc1nc(C(=O)NCC(=O)O)c(O)c2c(Oc3ccc(Cl)cc3)cccc12 [Compound K, {[5-(4-Chloro-phenoxy)-1-cyano-4-hydroxy-isoquinoline-3-carbonyl]-amino}-acetic acid]	–	–	–	–	–	–	–	–	491	34	562	31.8 10^3 cells/μl	233	0.4 10^3 cells/μl	33.0 10^3 cells/μl	0.8 10^3 cells/μl	–
N#Cc1nc(C(=O)NCC(=O)O)c(O)c2c(Cl)cn(Cc3ccccc3C(F)(F)F)c12 [Compound AT, {[3-Chloro-7-cyano-4-hydroxy-1-(2-trifluoromethyl-benzyl)-1H-pyrrolo[2,3-c]pyridine-5-carbonyl]-amino}-acetic acid]	81	27	94	8.5 10^3 cells/μl	94	0.2 10^3 cells/μl	9.4 10^3 cells/μl	0.8 10^3 cells/μl	–	–	–	–	–	–	–	–	–
O=C(O)CNC(=O)c1ncc2cc(Oc3ccc(F)c(F)c3)ccc2c1O [Compound V, {[7-(3,4-Difluoro-phenoxy)-4-hydroxy-isoquinoline-3-carbonyl]-amino}-acetic acid]	145	132	146	6.1 10^3 cells/μl	–	0.1 10^3 cells/μl	7.1 10^3 cells/μl	0.8 10^3 cells/μl	–	–	–	–	–	–	–	–	–
Cc1cc(Cl)cc(C)c1Oc1ccc2c(C#N)nc(C(=O)NCC(=O)O)c(O)c2c1 [Compound J, {[6-(4-Chloro-2,6-dimethyl-phenoxy)-1-cyano-4-hydroxy-isoquinoline-3-carbonyl]-amino}-acetic acid]	208	8	236	21.7 10^3 cells/μl	300	0.3 10^3 cells/μl	23.0 10^3 cells/μl	0.9 10^3 cells/μl	–	–	–	–	–	–	–	–	–

— patent US20110039879A1, “METHODS FOR INCREASING WHITE BLOOD CELLS” (FibroGen ,Inc., priority 2007, published 2011)
